From BigSolDB 2.1

Settings: in ethanol

CC(C)C1=CC2=CC[C@@H]3[C@](C)(CCC[C@@]3(C)C(=O)O)[C@H]2CC1
Settings	solubility (mole fraction)
285.07 K	0.0165
288.7 K	0.0183
292 K	0.0202
294.8 K	0.0219
297.05 K	0.0235
299.63 K	0.0253
301.8 K	0.0272
304.05 K	0.0291
306.05 K	0.0311
308.22 K	0.0335
310.35 K	0.036
312.35 K	0.0385
315.23 K	0.041
316.85 K	0.0439
319.03 K	0.0467
